Data set [1] concerns the target EGFR kinase (Homo sapiens (Human), UniProt P00533). In words: Inhibitory activity on EGFR kinase. It counts as biochemical. Conditions: ATP 5 μM. The method, then:
(§1) The Assay Buffer was prepared, and the composition of the Assay Buffer was 50 mM Hepes (Gibco, 15630), 10 mM MgCl2, 2 mM DTT, 1 mM EGTA, and 0.010% Tween 20. EGFR kinase (Carna, 08-115), ATP (Sigma, A7699), and ULight-poly GT (PE, TRF0100-M) working solutions were prepared using the Assay Buffer. EDTA and Eu-labeled anti-phosphotyrosine (PT66) antibody (PE, AD0069) working solutions were prepared using the Detection Buffer. 6 μL of EGFR kinase at the corresponding concentration (final concentration: 0.006 ng/μL) was added to the compound groups and the control group, while 6 μL of the Assay Buffer was added to the blank group, and then the compounds (with the concentration set to 1000 nM at the maximum, 4-fold dilution, 7 concentration gradients) were added using a nanoliter pipettor. The mixture was incubated at room temperature for 30 min, and then 4 μL of the mixture of ATP (final concentration: 5 μM) and ULight-poly GT (final concentration: 100 nM) was added. After incubation at room temperature for 2 h, 5 μL of EDTA (final concentration: 10 mM) was added to stop the reaction, and finally 5 μL of antibody (final concentration: 2 nM) was added. After incubation at room temperature for 1 h, signal values were detected at 665/615 nM, the four-parameter analysis was performed, the dose-response curves were fit, and IC50 was calculated.

The target in data set [2] is BTK(C481S) kinase (Homo sapiens (Human), UniProt Q06187, C481S). In words: Inhibitory activity on BTK(C481S) kinase. It counts as biochemical. As to conditions: ATP 10 μM. The method, then:
as §1, with “20. BTK(C481S)” for “20. EGFR”, “kinase (Carna Biosciences, 08-547),” for “kinase (Carna, 08-115),”, “of BTK(C481S)” for “of EGFR”, “concentration: 0.005” for “concentration: 0.006”, “concentration: 10” for “concentration: 5”

The target of data set [3] is BTK(WT) kinase (Homo sapiens (Human), UniProt Q06187). In words: Inhibitory activity on BTK(WT) kinase. It counts as biochemical. As to conditions: ATP 10 μM. The method, then:
The Assay Buffer was prepared, and the composition of the Assay Buffer was 50 mM Hepes (Gibco, 15630), 10 mM MgCl2, 2 mM DTT, 1 mM EGTA, and 0.010% Tween 20. BTK(WT) kinase (Life, PR5442A), ATP (Sigma, A7699), and ULight-poly GT (PE, TRF0100-M) working solutions were prepared using the Assay Buffer. EDTA and Eu-labeled anti-phosphotyrosine (PT66) antibody (PE, AD0069) working solutions were prepared using the Detection Buffer (PE, CR97-100). 6 μL of BTK(WT) kinase at the corresponding concentration (final concentration: 0.003 ng/L) was added to the compound groups and the control group, while 6 μL of the Assay Buffer was added to the blank group, and then the compounds (with the concentration set to 1000 nM at the maximum, 4-fold dilution, 7 concentration gradients) were each added using a nanoliter pipettor. The mixture was incubated at room temperature for 30 min, and then 4 μL of the mixture of ATP (final concentration: 10 μM) and ULight-poly GT (final concentration: 100 nM) was added. After incubation at room temperature for 2 h, 5 μL of EDTA (final concentration: 10 mM) was added to stop the reaction, and finally 5 μL of antibody (final concentration: 2 nM) was added. After incubation at room temperature for 1 h, signal values were detected at 665/615 nM, the four-parameter analysis was performed, the dose-response curves were fit, and IC50 was calculated.

For data set [4], the system named is TMD8-BTK(C481S) cells. Put plainly: Inhibitory activity on TMD8-BTK(C481S) cell proliferation (CCK-8). It counts as cell-based. As to conditions: 72 h incubation. The essentials:
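Cells seeded at 8×10^4 cells/mL, incubated overnight, then treated in duplicate with compounds at 5000 nM-0.31 nM for 72 h. Viability by CCK-8 (4 h, absorbance 450 nm); IC50 from four-parameter dose-response fits.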

Data set [5] can be described thus: In vitro liver microsomal stability, mouse. As to conditions: 0.5 mg/mL microsomes, NADPH, 37° C., 1 h.
Description: (§2) Liver microsome incubation samples were prepared by mixing a PBS buffer (pH 7.4), a liver microsome solution (0.5 mg/mL), a test compound, and an NADPH+MgCl2 solution and incubated at 37° C. and 300 rpm for 1 h. Zero-hour samples were prepared by mixing a PBS buffer (pH 7.4), a liver microsome solution (0.5 mg/mL), and a test compound. An acetonitrile solution containing an internal standard was added to the samples, and supernatants were prepared by protein precipitation, diluted, and then assayed by LC/MS/MS.
The target in data set [6] is BTK (Homo sapiens (Human), UniProt Q06187). Put plainly: BTK degradation in OCI-LY10 cells (Total-BTK HTRF kit). Type of data set: cell-based. Conditions: OCI-Ly10, OCI-LY10 cells, 24 (or 6) h incubation; maximum degradation rate. The essentials:
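OCI-LY10 cells seeded overnight, then treated with compound at 100 nM-0.098 nM in duplicate for 24 (or 6) h. Lysates probed by Total-BTK HTRF (d2/Eu cryptate antibodies, overnight, room temperature), read at 665/620 nm; DC50 and Dmax from four-parameter dose-response fits.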

The subject of data set [7] is TMD-8 xenograft tumors. Put plainly: In vivo drug efficacy, TMD-8 mouse subcutaneous xenograft tumors. Details: species or system NOD-SCID mice. As to conditions: 30 mg/kg, qd, i.g.; for TGI d 17: 16 days, tumor weight on day 17; for TV on d 0 Mean ± SD: day 0 (baseline at grouping); for TV on d 12 Mean ± SD: day 12; for TV on d 15 Mean ± SD: day 15. The method, then: TMD-8 mouse subcutaneous xenograft tumors: TMD-8 (WT) cells at a concentration of 1×10^8/mL were inoculated under aseptic conditions into the right side armpit of NOD-SCID mice at 0.1 mL/mouse. After subcutaneous grafting, the animals were divided into groups with 6 animals in each group when the tumor volume reached about 188 mm^3 (or 200 mm^3):
model group: vehicle, 6 mice; compound administration groups: 30 mg/kg, qd, i.g., 6 mice.
The vehicle or the test compound was intragastrically given at a volume of 4 mL/kg, once daily for 16 consecutive days. The tumor volume was measured 2-3 times a week, and meanwhile, the mice were weighed and the data were recorded; the general behaviors of the animals were observed every day. After all dosing was complete, the animals were sacrificed on day 17, and the tumors were removed and weighed.
The tumor volume and the tumor growth inhibition were calculated using the following formulae:
Tumor volume (TV)=(Length×Width^2)/2.
Tumor growth inhibition (TGI)=(1−tumor weight of treatment group/tumor weight of model group)×100%.

The nature of data set [8]: Mouse pharmacokinetics. It counts as in vivo, ICR mice. Conditions: for clearance / half-life / AUC / Cmax: ICR, mouse, plasma; for AUC: read-out: AUC; for Cmax: read-out: Cmax. How it is done: ICR mice weighing 18-22 g were randomized into groups of 9 after 3-5 days of acclimatization and then intragastrically given the test compound solution at a dose of 10 mg/kg. Plasma samples to be tested were prepared by taking blood from the orbit at time points of 15 min, 30 min, 1 h, 2 h, 3 h, 4 h, 6 h, 8 h, 10 h, and 24 h. 20 μL of each plasma sample to be detected and a standard curve sample were taken, and an acetonitrile solution containing an internal standard was added. […] Pharmacokinetic parameters were fitted using a non-compartmental model (see Table 5).

Data set [9] is described as follows: In vitro liver microsomal stability, human. Conditions: 0.5 mg/mL microsomes, NADPH, 37° C., 1 h. It counts as in vitro ADME. In general terms: Liver microsomes are vesicles of endoplasmic reticulum, rich in cytochrome P450 enzymes.
Description: as §2
For data set [10], the system named is OCI-LY10-BTK(C481S) cells. In words: Inhibitory activity on OCI-LY10-BTK(C481S) cell proliferation (CCK-8). It counts as cell-based. Conditions: 72 h, 72 h incubation, IC50 per method, unit inferred. How it is done: OCI-LY10(C481S) cells in the logarithmic growth phase were collected and added to a centrifuge tube, adjusted to a cell density of 5×10^4 cells/mL, and seeded in a 96-well plate (100 μL/well). Meanwhile, compounds were added using a nanoliter pipettor such that the final concentrations of the compounds were 5000 nM-0.31 nM; the addition was performed in duplicate, and meanwhile, a control was set. After another 72 h of incubation in the cell incubator, the detection reagent CCK-8 (manufacturer: Dojindo Laboratories, Beijing; 10 μL/well) was added. After 3 h of incubation in the cell incubator, absorbance values were detected at 450 nm using a PerkinElmer Envision microplate reader, the four-parameter analysis was performed, the dose-response curves were fit, and IC50 was calculated.

Data set [11] concerns OCI-LY10 cells. In words: Inhibitory activity on OCI-LY10 cell proliferation (CCK-8). Type of data set: cell-based. Conditions: Homo sapiens, OCI-Ly10, 72 h incubation. The essentials:
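Cells seeded at 1×10^5 cells/mL and incubated overnight were exposed in duplicate to final compound concentrations of 5000 nM-0.31 nM for 72 h. CCK-8 was added for 2.5 h and absorbance read at 450 nm. IC50 was obtained from four-parameter dose-response fits.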

Setting [12] is: po, 10 mg/kg, Mouse i.g. 10 mpk.

The record followed here is US20250152719A1, “FUSED IMIDE DERIVATIVE” (Chia Tai Tianqing Pharmaceutical Group Co., Ltd., priority 2021, published 2025).

SMILES strings stand for the structures. pIC50: −log10 of the molar value. Where two headings read alike, the source gives them in different places.

Chain of BTK (Q06187 whole entry): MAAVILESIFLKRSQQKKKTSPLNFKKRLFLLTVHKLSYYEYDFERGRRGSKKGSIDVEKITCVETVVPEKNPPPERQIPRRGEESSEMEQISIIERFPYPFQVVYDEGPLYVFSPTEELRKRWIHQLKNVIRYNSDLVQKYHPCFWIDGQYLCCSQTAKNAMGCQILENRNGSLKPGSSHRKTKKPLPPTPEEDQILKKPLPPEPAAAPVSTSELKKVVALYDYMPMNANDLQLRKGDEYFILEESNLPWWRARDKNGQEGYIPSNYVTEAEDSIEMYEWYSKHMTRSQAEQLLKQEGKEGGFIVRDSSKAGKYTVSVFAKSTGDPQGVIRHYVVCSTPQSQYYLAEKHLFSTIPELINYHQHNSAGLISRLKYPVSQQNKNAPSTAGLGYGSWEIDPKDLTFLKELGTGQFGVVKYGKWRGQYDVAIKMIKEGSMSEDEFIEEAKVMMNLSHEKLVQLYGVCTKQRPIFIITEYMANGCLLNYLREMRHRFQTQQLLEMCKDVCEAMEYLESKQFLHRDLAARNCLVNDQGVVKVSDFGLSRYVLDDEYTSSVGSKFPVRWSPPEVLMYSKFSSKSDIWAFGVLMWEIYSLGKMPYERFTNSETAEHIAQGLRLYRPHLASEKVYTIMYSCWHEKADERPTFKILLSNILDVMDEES
Chain of BTK(C481S) kinase (Q06187 whole entry C481S): as the sequence (Q06187 whole entry) above, with C481S counted along it
Chain of EGFR kinase (P00533 669-1210): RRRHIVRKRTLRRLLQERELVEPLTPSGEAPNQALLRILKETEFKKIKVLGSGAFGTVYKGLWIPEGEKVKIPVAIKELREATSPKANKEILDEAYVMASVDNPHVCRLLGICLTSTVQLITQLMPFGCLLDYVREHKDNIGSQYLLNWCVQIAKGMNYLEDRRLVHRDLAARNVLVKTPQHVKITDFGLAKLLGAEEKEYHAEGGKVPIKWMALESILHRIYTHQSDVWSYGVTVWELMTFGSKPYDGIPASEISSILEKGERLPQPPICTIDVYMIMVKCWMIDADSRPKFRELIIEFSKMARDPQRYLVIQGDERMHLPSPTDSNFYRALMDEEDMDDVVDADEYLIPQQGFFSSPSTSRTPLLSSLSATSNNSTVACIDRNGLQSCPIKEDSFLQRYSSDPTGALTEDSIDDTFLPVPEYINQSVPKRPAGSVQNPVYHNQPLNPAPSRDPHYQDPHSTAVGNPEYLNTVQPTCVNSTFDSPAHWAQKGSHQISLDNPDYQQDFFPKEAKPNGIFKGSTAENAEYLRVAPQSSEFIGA
Chain of BTK(WT) kinase (Q06187 whole entry): as the sequence (Q06187 whole entry) above

On to `CN1CCN([C@@H]2CCCN(c3cnc(C(N)=O)c(Nc4ccc(C5CCC6(CC5)CCN(CC5Cc7ccc8c(C9CCC(=O)NC9=O)noc8c7C5)CC6)cc4)n3)C2)C1=O` (stereo partly shown) [Compound 50], for which the pIC50 was 7.16 in [1], 9.09 in data set [2], 9.38 in [3] and 8.40 in data set [4] (72 h). In addition, the “Mouse liver microsome Residuals at 60 min” value in [5] was determined as 63.1%. Also, the maximal degradation (Dmax) in data set [6] was > 90%.
As to `CN1CCN([C@@H]2CCCN(c3cnc(C(N)=O)c(Nc4ccc(C5CCC6(CC5)CC(N5CCc7ccc8c(C9CCC(=O)NC9=O)noc8c7CC5)C6)cc4)n3)C2)C1=O` (stereo partly shown) [Compound 59], the negative-log IC50 (pIC50) in data set [1] is 6.55; in data set [2], 8.04; in data set [3] it was 8.27; in data set [4] (72 h), 7.92. The “Mouse liver microsome Residuals at 60 min” value in data set [5] was 47.0%. Besides, the greatest degradation seen (Dmax) in data set [6] is > 90%.
Consider `NC(=O)c1ncc(N2CCCCC2)nc1Nc1ccc(C2CCN(C3Cc4ccc5c(C6CCC(=O)NC6=O)noc5c4C3)CC2)cc1` (stereo not shown) [Compound 69], for which, in [7], the “TGI d 17” value was found to be 96.4%, the “TV on d 0 Mean ± SD” value was determined as 226 ± 21 mm^3, the “TV on d 12 Mean ± SD” value turned out to be 246 ± 56 mm^3 and the “TV on d 15 Mean ± SD” value is recorded as 199 ± 72 mm^3. Further, in [8] (iv, 1 mg/kg, Mouse i.v. 1 mpk), the clearance was 0.12 L/h/kg, the half-life was 2.6 h and the AUC turned out to be 8.03 µg·h/mL. Also, in data set [8] (setting [12]), the half-life was 7 h, the AUC was found to be 41.4 µg·h/mL and the peak concentration (Cmax) came out at 2.73 µg/mL. This compound also yielded a F in data set [8] (Mouse i.g. 10 mpk) of 51.6%. For the same compound, the pIC50 in data set [4] was 8.24. The “Mouse liver microsome Residuals at 60 min” value in data set [5] came to 85.0%. In data set [9], the “Human liver microsome Residuals at 60 min” value stood at 80.0%.
Turning to `NC(=O)c1ncc(N2CCCCC2)nc1Nc1ccc(N2CCC(CN3CCc4ccc5c(C6CCC(=O)NC6=O)noc5c4CC3)CC2)cc1` (stereo not shown) [Compound 72], in data set [7], the “TGI d 17” value is recorded as 97.9%, the “TV on d 0 Mean ± SD” value was 226 ± 21 mm^3, the “TV on d 12 Mean ± SD” value is given as 246 ± 52 mm^3 and the “TV on d 15 Mean ± SD” value worked out at 122 ± 78 mm^3. Further, in [8] (iv, 1 mg/kg, Mouse i.v. 1 mpk), the clearance is 0.72 L/h/kg, the half-life was 2.3 h and the AUC worked out at 1.29 µg·h/mL. Moreover, in data set [8] (setting [12]), the half-life was 4.6 h, the area under the curve (AUC) stood at 8.3 µg·h/mL and the Cmax came out at 0.634 µg/mL. In data set [8] (Mouse i.g. 10 mpk), this compound came in with an F of 64.50%. In data set [4] (72 h), this compound gave a pIC50 of 8.59. In addition, the Dmax in [6] was > 90%. Further, the “Human liver microsome Residuals at 60 min” value in data set [9] is recorded as 94.0%.
In data set [10], `CN1CCN([C@@H]2CCCN(c3cnc(C(N)=O)c(Nc4ccc(C5CCN(C6CN(c7cc8onc(C9CCC(=O)NC9=O)c8c8ccccc78)C6)CC5)cc4)n3)C2)C1=O` (stereo partly shown) [Compound 93] showed a pIC50 of 9.15. Besides, the “Mouse liver microsome Residuals at 60 min” value in data set [5] was 72.0%. For the same compound, the Dmax in data set [6] was > 90%. Also, the “Human liver microsome Residuals at 60 min” value in [9] is 53.0%.
In the case of `NC(=O)c1ncc(N2CCCCC2)nc1Nc1ccc(C2CCN(CC3CN(c4ccc5c(C6CCC(=O)NC6=O)noc5c4)C3)CC2)cc1` (stereo not shown) [Compound 94], the negative logarithm of the IC50 (pIC50) in [10] was 9.28; in data set [11], > 9.51. Also, the “Mouse liver microsome Residuals at 60 min” value in data set [5] was determined as 75.0%. In addition, the Dmax in data set [6] was > 90%. In data set [9], the “Human liver microsome Residuals at 60 min” value was 81.0%.

The term pIC50 denotes −log10 of the IC50, conventionally taken in molar units. A higher pIC50 goes with a small IC50. By Dmax is commonly meant the greatest extent of degradation seen. As usually defined, the clearance is the rate of elimination divided by the concentration. A higher clearance goes with efficient removal. The term half-life denotes the time needed for the level to fall by half in the phase considered. A high value points to slow loss. Usually AUC stands for concentration integrated over time. By Cmax is commonly meant the highest concentration seen after dosing.
